Assays:
p21 protein = assay: Immunoprecipitation of p21 in H0-1 cells; type: cell-based, human; conditions: IFN-β 2000 units/ml, MEZ 10 ng/ml
Method: Immunoprecipitation analyses were performed as described previously (Duigou et al., 1991; Su et al., 1993; Jiang et al., 1994b). […] Cultures were starved of methionine for 1 h at 37° C. in methionine-free medium, cells were concentrated by pelleting and labeled for 1 h (p53) or 4 h (p21 and Actin) at 37° in 1 ml of the same medium with 100 μCi of [^35S] (NEN; Express ^35S). After labeling, the cells were washed twice with ice-cold phosphate-buffered saline and lysed for 1 h on ice by the addition of RIPC (20 mM Tris-base, pH 7.5, 500 mM NaCl, 0.05% Nonidet P-40, 100 μg/ml phenylmethylsulfonyl fluoride and 0.02% sodium azide). The lysate was clarified by centrifugation in an Eppendorf microfuge at 10,000×g for 10 min at 4° C. H0-1 samples containing 4×10^6 counts were incubated with 2 μg of p53 monoclonal antibody (Ab1; PAb421) (Oncogene Sciences), WAF1/CIP1 (C-19) (Santa Cruz Biotechnology) (or MDA-6 peptide-derived) rabbit polyclonal IgG or actin monoclonal antibody (Oncogene Sciences) with rocking at 4° C. for 24 h. Labeled cell lysates were also prepared from F0-1, L0-1, SH-1, WM239, FM516-SV, SW480, MeWo, human skin fibroblasts and Saos-2 cells. Samples containing 4×10^6 counts were incubated with 2 μg of the p53 monoclonal antibody Ab1 (PAb421) or Ab3 (PAb240) (Oncogene Sciences). […]

mda-6 (WAF1/CIP1/SDI1) = assay: Induction of mda-6 (WAF1/CIP1/SDI1) expression in HL-60 cells (Northern blotting, RT-PCR); type: cell-based, human; conditions: TPA 3 nM, Vit D3 400 nM, RA 1 μM, DMSO 1%
Method: HL-60 cells were originally provided by Dr. R. C. Gallo (National Cancer Institute, Bethesda, Md.) (Collins et al., 1978; Huberman & Callaham, 1979). HL-60 cells designated HL-525 were derived by cloning HL-60 cells after subculturing 102 times in the presence of increasing concentrations (up to 3 μM) of TPA at 5- to 8-day intervals (Homma et al., 1986; Mitchell et al., 1986). […] Prior to the experiments described in this study, the HL-525 cells were subcultured more than 20 times in the absence of TPA. Cells were grown in 100-mm tissue culture dishes in RPMI 1640 medium supplemented with 20% fetal bovine serum, penicillin (100 units/ml) and streptomycin (100 μg/ml) (Grand Island Biological Co., NY) at 37° C. in an atmosphere of 5% CO2 in air in a humidified incubator. The 1,25-(OH)2D3(Vit D3) and TPA were dissolved in a final concentration of 0.01% DMSO, and all-trans retinoic acid (RA) was dissolved in 0.1% DMSO in culture medium. […]
RNA was purified by centrifugation through a CsC1 cushion as described by Chirgwin et al. (1979). […] Following hybridization, the filters were washed and exposed for autoradiography (Reddy et al., 1991; Su et al., 1991; Jiang et al., 1992). mda-6 and GAPDH gene expression were also determined by reverse transcription-polymerase chain reaction (RT-PCR) as described (Adollahi et al. 1991; Lin et al., 1994). […]

## C=C(C)[C@@]12O[C@@]3(c4ccccc4)O[C@@H]1[C@@H]1[C@@H]4O[C@]4(CO)[C@@H](O)[C@]4(O)C(=O)C(C)=C[C@H]4[C@@]1(O3)[C@H](C)[C@H]2OC(=O)/C=C/C=C/c1ccccc1 [MEZ, mezerein]
p21 protein; 24 h
  p21 mRNA and protein: induced
p21 protein; over 48, 72, 96 h
  p21 protein level: increases

## CCCCCCCCCCCCCC(=O)O[C@@H]1[C@@H](C)[C@@]2(O)[C@@H](C=C(CO)C[C@]3(O)C(=O)C(C)=C[C@@H]23)[C@@H]2C(C)(C)[C@]12OC(C)=O [TPA, 12-O-tetradecanoyl-phorbol-13-acetate]
mda-6 (WAF1/CIP1/SDI1)
  time of treatment at which mda-6 expression is induced: ≤ 2 h

From patent US7507792B2, “MDA-7 proteins and methods of use thereof” (The Trustees of Columbia University In The City of New York, priority 1993, dated 2009)
